# Laboratory results from patent publication US10899751B2, “Compounds, compositions, and methods for increasing CFTR activity” (Proteostasis Therapeutics, Inc., priority 2016, dated 2021).
# Target: T1, ΔF508-CFTR (Homo sapiens, UniProt P13569, DEL508-508)
# T1 construct: Primary lung epithelial cells homozygous for the Cystic Fibrosis-causing ΔF508 mutation were differentiated for a minimum of 4 weeks; endogenous in cells; host or cells: primary lung (bronchial) epithelial cells (hBE) homozygous for ΔF508, differentiated at an air-liquid interface
# Assay: hBE equivalent current (Ieq) assay
# Assay type: cell-based
# Settings: primary lung epithelial cells homozygous for ΔF508, 24 h treatment; for Ieq Activity: compound at its EC50 and VX-809 at 3 uM; for EC50: AUC of equivalent chloride current after forskolin plus VX-770
# Description: Primary lung epithelial cells homozygous for the Cystic Fibrosis-causing ΔF508 mutation were differentiated for a minimum of 4 weeks in an air-liquid interface on Costar 24 well HTS filter plates prior to the equivalent current (Ieq) measurements. Cells were apically mucus-washed for 30 minutes 24 h prior to treatment with compounds. The basolateral media was removed and replaced with media containing the compound of interest diluted to its final concentration from DMSO stocks. Treated cells were incubated at 37° C. and 5% CO2 for 24 hours. At the end of the treatment period, the media was changed to the Ieq experimental solution for 30 minutes before the experiment and plates are maintained in a CO2-free incubator during this period. The plates containing the cells were then placed in pre-warmed heating blocks at 36° C.±0.5 for 15 minutes before measurements are taken. The transepithelial voltage (VT) and conductance (GT) were measured using a custom 24 channel current clamp (TECC-24) with 24 well electrode manifold. The Ieq assay measurements were made following additions with standardized time periods: • 1. The baseline VT and GT values were measured for approximately 20 minutes. • 2. Benzamil was added to block ENaC for 15 minutes. • 3. Forskolin plus VX-770 were added to maximally activate ΔF508-CFTR for 27 minutes. • 4. Bumetanide was added to inhibit the NaK2Cl cotransporter and shut-off secretion of chloride.
# The activity data captured was the area under the curve (AUC) for the traces of the equivalent chloride current. The AUC was collected from the time of the forskolin/VX-770 addition until the inhibition by bumetanide addition. Correction in response to compound treatment was scored as the increase in the AUC for compound-treated samples over that of vehicle-treated samples.
# (** indicates activity ≥200% of VX-809 (3 uM) with compound at its EC50 and VX-809 at 3 uM; * indicates activity 100-200% of VX-809 (3 uM) with compound at its EC50 and VX-809 at 3 uM. ##indicates activity <100% of VX-809 (3 uM) with compound at its EC50 and VX-809 at 3 uM. In Table 2, an Ieq EC50 value of “A” indicates the compound's EC50 is ≤1 μM; an Ieq EC50 value of “B” indicates the compound's EC50 is between 1 and 10 μM; an Ieq EC50 value of “C” indicates the compound's EC50 is ≥10 μM.
# T1 sequence (P13569 with tags, fused parts or gaps DEL508-508): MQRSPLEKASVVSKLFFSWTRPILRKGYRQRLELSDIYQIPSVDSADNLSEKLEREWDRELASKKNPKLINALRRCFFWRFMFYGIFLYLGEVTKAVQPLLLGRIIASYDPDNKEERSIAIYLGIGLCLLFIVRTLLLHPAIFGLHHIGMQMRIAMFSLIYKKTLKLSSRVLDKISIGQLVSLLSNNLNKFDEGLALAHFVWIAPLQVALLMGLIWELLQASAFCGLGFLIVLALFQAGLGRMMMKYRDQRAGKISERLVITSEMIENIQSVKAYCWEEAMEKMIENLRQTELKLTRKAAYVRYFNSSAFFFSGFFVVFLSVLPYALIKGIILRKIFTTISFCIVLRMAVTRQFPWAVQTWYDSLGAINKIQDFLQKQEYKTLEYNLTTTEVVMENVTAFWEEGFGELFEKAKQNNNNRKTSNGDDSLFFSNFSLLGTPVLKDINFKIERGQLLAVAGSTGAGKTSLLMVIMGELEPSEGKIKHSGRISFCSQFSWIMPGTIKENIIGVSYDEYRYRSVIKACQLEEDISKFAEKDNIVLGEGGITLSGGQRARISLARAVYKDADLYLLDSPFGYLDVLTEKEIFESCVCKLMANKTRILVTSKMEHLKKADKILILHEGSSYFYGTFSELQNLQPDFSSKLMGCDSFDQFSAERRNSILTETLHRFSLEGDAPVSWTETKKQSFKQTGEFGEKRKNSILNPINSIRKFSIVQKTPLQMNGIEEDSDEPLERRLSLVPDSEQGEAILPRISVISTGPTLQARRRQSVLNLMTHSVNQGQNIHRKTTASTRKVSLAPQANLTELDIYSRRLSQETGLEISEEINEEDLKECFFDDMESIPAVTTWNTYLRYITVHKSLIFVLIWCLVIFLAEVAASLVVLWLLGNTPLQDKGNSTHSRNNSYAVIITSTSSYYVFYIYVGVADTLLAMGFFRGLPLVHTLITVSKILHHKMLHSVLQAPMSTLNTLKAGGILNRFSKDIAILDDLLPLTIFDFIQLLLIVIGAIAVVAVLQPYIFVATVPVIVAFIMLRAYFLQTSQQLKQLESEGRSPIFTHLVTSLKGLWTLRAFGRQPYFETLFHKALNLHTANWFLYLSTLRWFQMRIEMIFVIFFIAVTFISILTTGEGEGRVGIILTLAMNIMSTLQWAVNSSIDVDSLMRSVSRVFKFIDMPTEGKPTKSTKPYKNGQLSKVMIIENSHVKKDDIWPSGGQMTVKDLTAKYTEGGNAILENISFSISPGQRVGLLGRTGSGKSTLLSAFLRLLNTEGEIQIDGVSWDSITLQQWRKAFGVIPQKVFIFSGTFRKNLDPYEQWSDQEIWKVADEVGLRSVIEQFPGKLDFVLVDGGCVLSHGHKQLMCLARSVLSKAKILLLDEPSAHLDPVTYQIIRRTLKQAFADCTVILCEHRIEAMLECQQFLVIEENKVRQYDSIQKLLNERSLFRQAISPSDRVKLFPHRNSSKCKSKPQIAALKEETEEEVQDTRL
SMILES,Ieq Activity,EC50
"O=C(NCCCC(=O)N1CCC1)c1cc(-c2ccc(F)cc2)on1 [Example 1, N-(4-(Azetidin-1-yl)-4-oxobutyl)-5-(4-fluorophenyl)isoxazole-3-carboxamide]",** (** indicates activity ≥200% of VX-809 (3 uM) with compound at its EC50 and VX-809 at 3 uM),≤ 1 µM
"O=C(N[C@H]1C[C@H](C(=O)N2CCC2)C1)c1cc(-c2ccccc2)on1 [Example 2, N-((1r,3r)-3-(Azetidine-1-carbonyl)cyclobutyl)-5-phenylisoxazole-3-carboxamide]",** (** indicates activity ≥200% of VX-809 (3 uM) with compound at its EC50 and VX-809 at 3 uM),≤ 1 µM
"O=C(NCCCC(=O)N1CCC1)c1cc(-c2ccccc2)no1 [Example 3, N-(4-(Azetidin-1-yl)-4-oxobutyl)-3-phenylisoxazole-5-carboxamide]",* (* indicates activity 100-200% of VX-809 (3 uM) with compound at its EC50 and VX-809 at 3 uM),1 to 10 µM
"O=C(N[C@H]1C[C@H](C(=O)N2CCC2)C1)c1cc(-c2ccccc2)no1 [Example 4, N-((1r,3r)-3-(Azetidine-1-carbonyl)cyclobutyl)-3-phenylisoxazole-5-carboxamide]",** (** indicates activity ≥200% of VX-809 (3 uM) with compound at its EC50 and VX-809 at 3 uM),1 to 10 µM
O=C(N[C@H]1C[C@H](C(=O)N2CCC2)C1)c1cc(-c2ccc(F)cc2)on1 [Example 6],* (* indicates activity 100-200% of VX-809 (3 uM) with compound at its EC50 and VX-809 at 3 uM),≤ 1 µM
O=C(NCCCCC(=O)N1CCC1)c1cc(-c2ccccc2)on1 [Example 8],## (##indicates activity <100% of VX-809 (3 uM) with compound at its EC50 and VX-809 at 3 uM),≤ 1 µM
CN1CCN(C(=O)CCCNC(=O)c2cc(-c3ccc(F)cc3)on2)CC1 [Example 10],## (##indicates activity <100% of VX-809 (3 uM) with compound at its EC50 and VX-809 at 3 uM),≤ 1 µM
CN1CCN(C(=O)CCCCNC(=O)c2cc(-c3ccccc3)on2)CC1 [Example 11],## (##indicates activity <100% of VX-809 (3 uM) with compound at its EC50 and VX-809 at 3 uM),≤ 1 µM
O=C(NCCC(=O)N1CCC1)c1cc(-c2ccccc2)on1 [Example 12],* (* indicates activity 100-200% of VX-809 (3 uM) with compound at its EC50 and VX-809 at 3 uM),≤ 1 µM
